According to PMC3692398 (Biochemical pharmacology, 2013):
Like-named read-outs stand apart in the source and are kept apart here.

Experiments:
hVMAT2 [1] = biological target: T1, hVMAT2 (Homo sapiens, UniProt Q05940); assay: Superfusion release of preloaded [3H]NE from HEK-hVMAT2 cells; assay type: cell-based; conditions: for EC50: read-out: Drug-induced release of [3H]NE EC50 ± sem, hVMAT2, superfusion
h5-HT2C receptor [2] = biological target: T2, h5-HT2C receptor (Homo sapiens, UniProt P28335); assay: Inhibition of 5-HT-stimulated IP-1 formation; assay type: cell-based; conditions: 100 nM 5-HT; normalized to maximal inhibition by SB242084 (1 µM)
T2 sequence (P28335 33-458): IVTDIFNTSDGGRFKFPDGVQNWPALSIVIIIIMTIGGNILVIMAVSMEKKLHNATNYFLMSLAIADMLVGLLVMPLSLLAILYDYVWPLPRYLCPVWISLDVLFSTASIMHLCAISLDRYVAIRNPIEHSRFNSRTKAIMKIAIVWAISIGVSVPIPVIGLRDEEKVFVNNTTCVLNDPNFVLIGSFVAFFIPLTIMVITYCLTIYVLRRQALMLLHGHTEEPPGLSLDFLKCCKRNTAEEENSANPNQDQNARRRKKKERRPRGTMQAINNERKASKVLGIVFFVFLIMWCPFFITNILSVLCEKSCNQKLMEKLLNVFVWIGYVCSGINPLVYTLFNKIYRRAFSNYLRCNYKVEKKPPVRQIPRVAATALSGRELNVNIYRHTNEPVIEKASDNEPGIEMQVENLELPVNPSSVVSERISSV

hSigma1 receptor = hSigma1 receptor (Homo sapiens, UniProt Q99720); assay: [3H]; assay type: binding
hSERT [3] = biological target: T3, hSERT (Homo sapiens, UniProt P31645); assay: Inhibition of [3H]5-HT uptake, intact HEK-hSERT cells; assay type: cell-based; conditions: for ratio of binding Ki to uptake IC50, hSERT: [125I]RTI-55 Ki / [3H]5-HT uptake IC50; for IC50: read-out: Inhibition of [3H]neurotransmitter uptake IC50 ± sem, hSERT [3H]5-HT, 20 nM [3H]5-HT, intact cells
hDAT [4] = biological target: T4, hDAT (Homo sapiens, UniProt Q01959); assay: Inhibition of [3H]DA uptake, intact HEK-hDAT cells; assay type: cell-based; conditions: for ratio of binding Ki to uptake IC50, hDAT: [125I]RTI-55 Ki / [3H]DA uptake IC50; for IC50: read-out: Inhibition of [3H]neurotransmitter uptake IC50 ± sem, hDAT [3H]DA, 20 nM [3H]DA, intact cells
hDAT [5] = biological target: T4, hDAT; assay: Inhibition of [125I]RTI-55 binding, HEK-hDAT membranes; conditions: read-out: Inhibition of [125I]RTI-55 binding Ki ± sem, hDAT; HEK-hDAT membranes
hVMAT2 [6] = biological target: T1, hVMAT2; assay: Inhibition of [3H]DHTB binding, HEK-hVMAT2 membranes; conditions: read-out: Inhibition of [3H]DHTB binding Ki ± sem, hVMAT2
hSERT [7] = biological target: T3, hSERT; assay: Superfusion release of preloaded [3H]5-HT from HEK-hSERT cells; assay type: cell-based; conditions: for EC50: read-out: Drug-induced release of [3H]neurotransmitter EC50 ± sem, hSERT [3H]5-HT, superfusion, AUC
hNET [8] = biological target: T5, hNET (Homo sapiens, UniProt P23975); assay: cell-based; assay type: cell-based; conditions: for IC50: read-out: Inhibition of [3H]neurotransmitter uptake IC50 ± sem, hNET [3H]NE
hNET [9] = biological target: T5, hNET; assay: Superfusion release of preloaded [3H]NE from HEK-hNET cells; assay type: cell-based; conditions: for releasing efficacy, hNET [3H]NE: concentrations ranging from 10 nM to 100 µM; for EC50: read-out: Drug-induced release of [3H]neurotransmitter EC50 ± sem, hNET [3H]NE, superfusion, AUC; for % maximum release ± sem, hNET [3H]NE: relative to maximal AUC induced by METH (0.3 or 1 µM)
hNET [10] = biological target: T5, hNET; assay: biochemical; assay type: binding; conditions: read-out: Inhibition of [125I]RTI-55 binding Ki ± sem, hNET
hVMAT2 [11] = biological target: T1, hVMAT2; assay: Inhibition of [3H]5-HT uptake, HEK-hVMAT2 membrane preparation; assay type: biochemical; conditions: read-out: Inhibition of [3H]5-HT uptake IC50 ± sem, hVMAT2; 40 nM [3H]5-HT, 2 mM MgATP
h5-HT2A receptor [12] = biological target: T6, h5-HT2A receptor (Homo sapiens, UniProt P28223); assay: Inhibition of 5-HT-stimulated IP-1 formation; assay type: cell-based; conditions: 100 nM 5-HT; for h5-HT2A Inhibition of 5-HT-stimulated IP-1 formation % maximum inhibition ± sem: normalized to maximal inhibition by ketanserin (10 µM); for IC50: read-out: h5-HT2A Inhibition of 5-HT-stimulated IP-1 formation IC50 ± sem
h5-HT1A receptor [13] = biological target: T7, h5-HT1A receptor (Homo sapiens, UniProt P08908); assay: [3H]8-OH-DPAT binding, HEK-h5-HT1A; conditions: read-out: Inhibition of radioligand binding Ki ± sem, h5-HT1A [3H]8OH-DPAT
T7 sequence (P08908 1-422): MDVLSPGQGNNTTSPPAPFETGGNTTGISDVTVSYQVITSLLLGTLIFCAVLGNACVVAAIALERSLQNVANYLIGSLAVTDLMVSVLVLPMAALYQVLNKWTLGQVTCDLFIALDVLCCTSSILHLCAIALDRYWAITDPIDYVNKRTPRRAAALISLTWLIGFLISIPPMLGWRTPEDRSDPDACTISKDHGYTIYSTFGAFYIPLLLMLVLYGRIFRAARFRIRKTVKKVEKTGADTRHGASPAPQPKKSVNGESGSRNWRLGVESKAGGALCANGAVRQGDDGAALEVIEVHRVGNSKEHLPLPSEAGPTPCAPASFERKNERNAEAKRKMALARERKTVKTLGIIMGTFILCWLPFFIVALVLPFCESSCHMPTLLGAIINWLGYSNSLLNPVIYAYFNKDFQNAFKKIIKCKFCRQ

h5-HT2C receptor [14] = biological target: T2, h5-HT2C receptor; assay: biochemical; assay type: binding; conditions: for Ki: read-out: Inhibition of radioligand binding Ki ± sem, h5-HT2C [125I]DOI
hDAT [15] = biological target: T4, hDAT; assay: Superfusion release of preloaded [3H]DA from HEK-hDAT cells; assay type: cell-based; conditions: for releasing efficacy, hDAT [3H]DA: concentrations ranging from 1 nM to 100 µM; for EC50: read-out: Drug-induced release of [3H]neurotransmitter EC50 ± sem, hDAT [3H]DA, superfusion, AUC
h5-HT2A receptor [16] = biological target: T6, h5-HT2A receptor; assay: [125I]DOI binding, HEK-h5-HT2A; conditions: read-out: Inhibition of radioligand binding Ki ± sem, h5-HT2A [125I]DOI
h5-HT1A receptor [17] = biological target: T7, h5-HT1A receptor; assay: Stimulation of [35S]GTPγS binding, HEK-h5-HT1A membranes; assay type: biochemical; conditions: for h5-HT1A Stimulation of [35S]GTPγS binding % maximum stimulation ± sem: normalized to the maximal stimulation by 5-HT; for EC50: read-out: h5-HT1A Stimulation of [35S]GTPγS binding EC50 ± sem
human DA D1 receptor = human DA D1 receptor (Homo sapiens, UniProt P21728); assay: [3H]SCH23390 binding, LhD1 cells; conditions: test drugs up to the maximal concentration tested (10 µM)
[18] = read-out: Inhibition of [3H]pentazocine binding Ki ± sem, hSigma1

T1 sequence (Q05940 whole entry, the tested form may be a part): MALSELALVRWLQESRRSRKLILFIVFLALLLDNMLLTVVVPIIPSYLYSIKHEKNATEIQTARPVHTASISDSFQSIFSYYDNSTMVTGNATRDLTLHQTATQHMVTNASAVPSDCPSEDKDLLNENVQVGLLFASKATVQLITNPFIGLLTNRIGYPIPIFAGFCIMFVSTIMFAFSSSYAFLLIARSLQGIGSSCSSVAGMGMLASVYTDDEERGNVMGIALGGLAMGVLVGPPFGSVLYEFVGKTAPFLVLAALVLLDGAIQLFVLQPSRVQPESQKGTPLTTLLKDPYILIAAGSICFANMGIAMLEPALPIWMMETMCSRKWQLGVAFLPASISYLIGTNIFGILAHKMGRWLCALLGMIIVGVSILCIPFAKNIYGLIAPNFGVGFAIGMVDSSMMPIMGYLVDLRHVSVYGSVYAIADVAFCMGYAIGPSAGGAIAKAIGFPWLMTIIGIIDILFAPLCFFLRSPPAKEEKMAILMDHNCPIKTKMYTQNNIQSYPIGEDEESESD
T3 sequence (P31645 whole entry): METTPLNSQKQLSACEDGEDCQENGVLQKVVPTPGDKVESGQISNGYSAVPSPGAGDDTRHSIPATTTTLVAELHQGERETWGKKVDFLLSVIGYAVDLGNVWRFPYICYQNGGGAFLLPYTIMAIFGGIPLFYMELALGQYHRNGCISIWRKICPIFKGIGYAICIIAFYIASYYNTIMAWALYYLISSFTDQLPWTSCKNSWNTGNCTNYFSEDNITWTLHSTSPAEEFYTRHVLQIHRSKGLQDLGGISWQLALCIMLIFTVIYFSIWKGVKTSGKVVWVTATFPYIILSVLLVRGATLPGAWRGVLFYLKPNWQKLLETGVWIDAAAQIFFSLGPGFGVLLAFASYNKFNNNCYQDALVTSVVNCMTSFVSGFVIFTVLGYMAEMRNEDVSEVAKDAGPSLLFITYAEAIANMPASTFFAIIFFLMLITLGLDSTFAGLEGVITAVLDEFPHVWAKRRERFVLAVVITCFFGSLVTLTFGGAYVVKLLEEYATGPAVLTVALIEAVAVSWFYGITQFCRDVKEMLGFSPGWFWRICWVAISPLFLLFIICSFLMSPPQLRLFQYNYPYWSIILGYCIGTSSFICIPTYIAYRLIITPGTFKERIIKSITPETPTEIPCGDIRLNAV
T4 sequence (Q01959 whole entry): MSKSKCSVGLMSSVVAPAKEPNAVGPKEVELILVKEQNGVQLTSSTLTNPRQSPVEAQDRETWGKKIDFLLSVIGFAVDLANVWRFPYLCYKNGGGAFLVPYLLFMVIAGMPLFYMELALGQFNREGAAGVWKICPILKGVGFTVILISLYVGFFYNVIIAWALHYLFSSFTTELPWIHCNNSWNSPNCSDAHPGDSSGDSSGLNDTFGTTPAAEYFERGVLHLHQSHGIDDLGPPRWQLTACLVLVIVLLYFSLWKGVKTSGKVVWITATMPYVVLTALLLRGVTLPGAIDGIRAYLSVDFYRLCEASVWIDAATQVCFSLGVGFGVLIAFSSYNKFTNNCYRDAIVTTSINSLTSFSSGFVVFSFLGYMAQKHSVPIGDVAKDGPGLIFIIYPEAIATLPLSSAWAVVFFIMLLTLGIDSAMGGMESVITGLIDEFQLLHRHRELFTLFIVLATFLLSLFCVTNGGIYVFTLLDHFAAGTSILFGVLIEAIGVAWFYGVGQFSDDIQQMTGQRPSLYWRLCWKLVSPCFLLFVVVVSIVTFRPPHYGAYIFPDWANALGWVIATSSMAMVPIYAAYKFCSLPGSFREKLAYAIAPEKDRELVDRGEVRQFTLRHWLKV
T6 sequence (P28223 whole entry): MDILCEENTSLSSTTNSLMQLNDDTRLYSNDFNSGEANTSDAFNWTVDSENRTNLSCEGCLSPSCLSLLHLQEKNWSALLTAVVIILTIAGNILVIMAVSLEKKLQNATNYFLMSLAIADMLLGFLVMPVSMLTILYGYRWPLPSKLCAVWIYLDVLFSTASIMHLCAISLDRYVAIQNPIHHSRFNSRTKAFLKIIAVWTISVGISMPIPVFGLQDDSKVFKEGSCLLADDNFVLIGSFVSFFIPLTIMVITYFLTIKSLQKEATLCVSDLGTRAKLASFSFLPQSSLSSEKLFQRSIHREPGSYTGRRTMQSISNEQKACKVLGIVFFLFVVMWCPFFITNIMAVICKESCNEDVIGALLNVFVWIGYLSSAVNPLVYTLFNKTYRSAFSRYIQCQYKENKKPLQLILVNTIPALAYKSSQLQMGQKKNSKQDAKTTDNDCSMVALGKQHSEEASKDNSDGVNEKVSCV
Sequence of hSigma1 receptor (Q99720 whole entry): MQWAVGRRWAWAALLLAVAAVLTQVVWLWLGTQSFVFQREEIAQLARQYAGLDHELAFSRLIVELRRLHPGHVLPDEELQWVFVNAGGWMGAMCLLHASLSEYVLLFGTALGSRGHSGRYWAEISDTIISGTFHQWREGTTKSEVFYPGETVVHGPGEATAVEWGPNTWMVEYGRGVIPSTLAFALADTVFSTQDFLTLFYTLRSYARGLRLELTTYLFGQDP
T5 sequence (P23975 whole entry, the tested form may be a part): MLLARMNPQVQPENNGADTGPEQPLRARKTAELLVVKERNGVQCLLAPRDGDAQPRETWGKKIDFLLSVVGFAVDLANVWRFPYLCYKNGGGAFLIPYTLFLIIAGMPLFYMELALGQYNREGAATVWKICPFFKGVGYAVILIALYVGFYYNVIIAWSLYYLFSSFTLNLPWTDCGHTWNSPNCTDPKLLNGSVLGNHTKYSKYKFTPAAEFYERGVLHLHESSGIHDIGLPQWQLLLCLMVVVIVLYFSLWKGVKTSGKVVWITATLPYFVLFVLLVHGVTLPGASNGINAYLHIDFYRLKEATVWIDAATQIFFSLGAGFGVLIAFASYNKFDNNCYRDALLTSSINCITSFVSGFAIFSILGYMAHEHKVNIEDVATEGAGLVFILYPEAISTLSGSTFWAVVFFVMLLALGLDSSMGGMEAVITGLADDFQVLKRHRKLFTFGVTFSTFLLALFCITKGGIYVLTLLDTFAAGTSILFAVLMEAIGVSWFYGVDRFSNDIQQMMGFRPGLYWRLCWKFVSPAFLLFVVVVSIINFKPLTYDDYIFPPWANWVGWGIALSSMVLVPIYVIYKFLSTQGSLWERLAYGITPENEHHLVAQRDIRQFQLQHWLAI
Sequence of human DA D1 receptor (P21728 whole entry): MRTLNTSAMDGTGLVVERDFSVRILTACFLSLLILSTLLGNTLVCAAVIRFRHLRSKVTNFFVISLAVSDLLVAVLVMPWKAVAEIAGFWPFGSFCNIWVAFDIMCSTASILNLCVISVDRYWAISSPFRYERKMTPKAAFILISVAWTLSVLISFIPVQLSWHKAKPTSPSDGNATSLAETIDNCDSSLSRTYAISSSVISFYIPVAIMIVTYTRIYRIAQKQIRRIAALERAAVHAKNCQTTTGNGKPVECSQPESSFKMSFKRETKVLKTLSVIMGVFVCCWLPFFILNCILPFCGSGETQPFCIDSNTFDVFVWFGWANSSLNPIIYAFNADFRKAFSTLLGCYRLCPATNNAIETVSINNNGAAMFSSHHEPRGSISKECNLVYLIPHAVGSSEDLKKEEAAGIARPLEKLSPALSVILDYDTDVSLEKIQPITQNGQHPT

| SMILES | EC50 (hVMAT2 [1]) | h5-HT2C Inhibition of 5-HT-stimulated IP-1 formation % maximum inhibition ± sem (h5-HT2C receptor [2]) | Ki (hSigma1 receptor; [18]) | ratio of binding Ki to uptake IC50, hSERT (hSERT [3]) | IC50 (hSERT [3]) | ratio of binding Ki to uptake IC50, hDAT (hDAT [4]) | IC50 (hDAT [4]) | Ki (hDAT [5]) | Ki (hVMAT2 [6]) | % maximum release ± sem, hSERT [3H]5-HT (hSERT [7]) | EC50 (hSERT [7]) | releasing efficacy, hNET [3H]NE (hNET [9]) | EC50 (hNET [9]) | % maximum release ± sem, hNET [3H]NE (hNET [9]) | IC50 (hVMAT2 [11]) | h5-HT2A Inhibition of 5-HT-stimulated IP-1 formation % maximum inhibition ± sem (h5-HT2A receptor [12]) | IC50 (h5-HT2A receptor [12]) | Ki (h5-HT1A receptor [13]) | Ki (h5-HT2C receptor [14]) | releasing efficacy, hDAT [3H]DA (hDAT [15]) | further results |
| --- | --- | --- | --- | --- | --- | --- | --- | --- | --- | --- | --- | --- | --- | --- | --- | --- | --- | --- | --- | --- | --- |
| CCCC(C(=O)c1ccc2ccccc2c1)N1CCCC1 (stereo not shown) [Naphyrone, naphthylpyrovalerone] | > 100 µM | 32 ± 14% | 0.509 ± 0.052 µM | less than six | 0.0593 ± 0.0097 µM | less than six | 0.0126 ± 0.0031 µM | 0.0108 ± 0.00076 µM | 119 ± 20 µM | 20.1 ± 9.3% | 7.5 ± 3 µM | minimal releasing efficacy | > 100 µM | 36 ± 18% | 21.4 ± 7.1 µM | 98.18 ± 0.94% | 65 ± 11 µM | 4.64 ± 0.6 µM | 23.2 µM | minimal releasing efficacy | Release of [3H]NE % maximum release ± sem or range, hVMAT2 (hVMAT2 [1]; relative to maximal AUC induced by METH (100 µM or 1 mM)): 34 ± 14%; Release of [3H]NE % maximum release ± sem or range, hVMAT2 (hVMAT2 [1]; relative to maximal AUC induced by METH (100 µM or 1 mM), listed as naphyrone): less than 35%; fold less potent at other target proteins than at biogenic amine transporters (hDAT [4]; other target proteins vs biogenic amine transporters): 60–350 fold; releasing efficacy, hSERT [3H]5-HT (hSERT [7]; concentrations ranging from 1 nM to 100 µM): minimal releasing efficacy; ratio of binding Ki to uptake IC50, hNET (hNET [8]): less than six; IC50 (hNET [8]): 0.035 µM; Ki (hNET [10]): 0.059 µM; EC50 (hDAT [15]): > 100 µM; % maximum release ± sem, hDAT [3H]DA (hDAT [15]; relative to maximal AUC induced by METH (1 or 10 µM)): < 6%; Ki (h5-HT2A receptor [16]): 17.7 ± 2.6 µM; h5-HT1A Stimulation of [35S]GTPγS binding % maximum stimulation ± sem (h5-HT1A receptor [17]): 80 ± 15%; EC50 (h5-HT1A receptor [17]): 116 ± 30 µM |
| O=C(CCCN1CCC2(CC1)C(=O)NCN2c1ccccc1)c1ccc(F)cc1 [Spiperone, reference compound] |  |  |  |  |  |  |  |  |  |  |  |  |  |  |  |  |  |  |  |  | Ki (hSigma1 receptor; Inhibition of [3H]pentazocine binding Ki ± sem, hSigma1): 1.31 ± 0.24 µM |
| CN1CCc2cc(Cl)c(O)cc2[C@@H](c2ccccc2)C1 [SCH23390] |  |  |  |  |  |  |  |  |  |  |  |  |  |  |  |  |  |  |  |  | affinity for the [3H]SCH23390 binding site, DA D1 receptor (human DA D1 receptor): high affinity |
| CCC(NC)C(=O)c1ccc2c(c1)OCO2 (stereo not shown) [Butylone] | 4.4 ± 0.52 µM | 11 ± 12% | 7.9 ± 1.8 µM | 5.3 | 1.97 ± 0.43 µM | 8.2 | 0.211 ± 0.054 µM | 1.73 ± 0.27 µM | 730 ± 110 µM | 30.1 ± 6.5% | 3.1 ± 1.4 µM | minimal releasing efficacy | > 100 µM | 3.6 ± 2.2% | 162 ± 55 µM | 95.9 ± 4.1% | 410 ± 110 µM | > 96 µM | 41 ± 12 µM | minimal releasing efficacy | Release of [3H]NE % maximum release ± sem or range, hVMAT2 (hVMAT2 [1]): 17.4 ± 1.1%; ratio of binding Ki to uptake IC50, hNET (hNET [8]; [125I]RTI-55 Ki / [3H]NE uptake IC50): 7.5; IC50 (hNET [8]; 20 nM [3H]NE, intact cells): 1.06 ± 0.24 µM; Ki (hNET [10]; HEK-hNET membranes): 7.98 ± 0.55 µM; % maximum release ± sem, hDAT [3H]DA (hDAT [15]): 5.4 ± 3.8%; EC50 (hDAT [15]): > 10 µM; Ki (h5-HT2A receptor [16]): 118 ± 17 µM; h5-HT1A Stimulation of [35S]GTPγS binding % maximum stimulation ± sem (h5-HT1A receptor [17]): 52 ± 13%; EC50 (h5-HT1A receptor [17]): 440 ± 110 µM |
| COc1cc(CC(C)N)c(OC)cc1I (racemic) [[^125I]DOI, (±)-1-(2,5,-dimethoxy-4-iodophenyl)-2-aminopropane, reference compound] |  |  |  |  |  |  |  |  |  |  |  |  |  |  |  |  |  |  |  |  | Kd (h5-HT2C receptor [14]; read-out: Kd of radioligand, HEK-H5HT2C): 0.00418 ± 0.00046 µM |
